Measured values reported in the CheMixHub viscosity set.

Experiment: xn = mol fraction of the nth substance listed

ClC(Cl)=C(Cl)Cl + CCCCOCCO
viscosity [mPa·s], 101.33 kPa
Settings | x1 = 0.1139 | x1 = 0.2084 | x1 = 0.3166 | x1 = 0.4172 | x1 = 0.5191 | x1 = 0.6215 | x1 = 0.7098 | x1 = 0.8124 | x1 = 0.9087
303.15 K | 2.167 | 1.954 | 1.716 | 1.51 | 1.327 | 1.17 | 1.049 | 0.939 | 0.854
313.15 K | 1.689 | 1.543 | 1.381 | 1.24 | 1.113 | 0.998 | 0.913 | 0.831 | 0.771

CCOCCOCCO + CCCN
298.15 K, 101 kPa
Settings | viscosity [mPa·s]
x1 = 0.0118 | 0.374
x1 = 0.0312 | 0.412
x1 = 0.0523 | 0.448
x1 = 0.0786 | 0.495
x1 = 0.099 | 0.533
x1 = 0.1259 | 0.59
x1 = 0.1728 | 0.701
x1 = 0.2037 | 0.789
x1 = 0.2298 | 0.868
x1 = 0.2646 | 0.986
x1 = 0.3048 | 1.133
x1 = 0.3392 | 1.272
x1 = 0.4055 | 1.566
x1 = 0.4419 | 1.745
x1 = 0.4758 | 1.917
x1 = 0.5112 | 2.092
x1 = 0.5558 | 2.317
x1 = 0.5903 | 2.488
x1 = 0.633 | 2.695
x1 = 0.6711 | 2.869
x1 = 0.7054 | 3.013
x1 = 0.7412 | 3.154
x1 = 0.7802 | 3.297
x1 = 0.8328 | 3.464
x1 = 0.8664 | 3.549
x1 = 0.8935 | 3.616
x1 = 0.9187 | 3.674
x1 = 0.9388 | 3.712
x1 = 0.9709 | 3.779

CCCCCCCC + CCCO
Settings | viscosity [mPa·s]
293.15 K, 101.3 kPa, x2 = 0.2756 | 0.602
293.15 K, 101.3 kPa, x2 = 0.4165 | 0.699
293.15 K, 101.3 kPa, x2 = 0.5351 | 0.825
293.15 K, 101.3 kPa, x2 = 0.6355 | 0.967
293.15 K, 101.3 kPa, x2 = 0.6822 | 1.039
293.15 K, 101.3 kPa, x2 = 0.7221 | 1.128
293.15 K, 101.3 kPa, x2 = 0.7934 | 1.295
293.15 K, 101.3 kPa, x2 = 0.8726 | 1.545
293.15 K, 101.3 kPa, x2 = 0.9243 | 1.746
293.15 K, 101.3 kPa, x2 = 0.9752 | 2.003
298.15 K, 101.3 kPa, x2 = 0.114 | 0.511
298.15 K, 101.3 kPa, x2 = 0.2756 | 0.561
298.15 K, 101.3 kPa, x2 = 0.4165 | 0.645
298.15 K, 101.3 kPa, x2 = 0.5351 | 0.752
298.15 K, 101.3 kPa, x2 = 0.6356 | 0.875
298.15 K, 101.3 kPa, x2 = 0.6823 | 0.939
298.15 K, 101.3 kPa, x2 = 0.7221 | 1.016
298.15 K, 101.3 kPa, x2 = 0.7934 | 1.162
298.15 K, 101.3 kPa, x2 = 0.8726 | 1.403
298.15 K, 101.3 kPa, x2 = 0.9243 | 1.554
298.15 K, 101.3 kPa, x2 = 0.9752 | 1.79
298.15 K, 101.33 kPa, x2 = 0.1018 | 0.535
298.15 K, 101.33 kPa, x2 = 0.1778 | 0.558
298.15 K, 101.33 kPa, x2 = 0.3151 | 0.617
298.15 K, 101.33 kPa, x2 = 0.4271 | 0.696
298.15 K, 101.33 kPa, x2 = 0.5512 | 0.809
298.15 K, 101.33 kPa, x2 = 0.6801 | 0.987
298.15 K, 101.33 kPa, x2 = 0.7955 | 1.227
298.15 K, 101.33 kPa, x2 = 0.9677 | 1.824
303.15 K, 101.3 kPa, x2 = 0.114 | 0.482
303.15 K, 101.3 kPa, x2 = 0.2756 | 0.522
303.15 K, 101.3 kPa, x2 = 0.4165 | 0.592
303.15 K, 101.3 kPa, x2 = 0.5351 | 0.686
303.15 K, 101.3 kPa, x2 = 0.6355 | 0.795
303.15 K, 101.3 kPa, x2 = 0.6822 | 0.857
303.15 K, 101.3 kPa, x2 = 0.7221 | 0.917
303.15 K, 101.3 kPa, x2 = 0.7934 | 1.045
303.15 K, 101.3 kPa, x2 = 0.8726 | 1.227
303.15 K, 101.3 kPa, x2 = 0.9243 | 1.383
303.15 K, 101.3 kPa, x2 = 0.9752 | 1.579
308.15 K, 101.3 kPa, x2 = 0.0417 | 0.458
308.15 K, 101.3 kPa, x2 = 0.1389 | 0.466
308.15 K, 101.3 kPa, x2 = 0.2682 | 0.497
308.15 K, 101.3 kPa, x2 = 0.3477 | 0.528
308.15 K, 101.3 kPa, x2 = 0.4105 | 0.558
308.15 K, 101.3 kPa, x2 = 0.4648 | 0.591
308.15 K, 101.3 kPa, x2 = 0.525 | 0.636
308.15 K, 101.3 kPa, x2 = 0.5911 | 0.694
308.15 K, 101.3 kPa, x2 = 0.6512 | 0.757
308.15 K, 101.3 kPa, x2 = 0.7011 | 0.818
308.15 K, 101.3 kPa, x2 = 0.7397 | 0.873
308.15 K, 101.3 kPa, x2 = 0.7864 | 0.95
308.15 K, 101.3 kPa, x2 = 0.8382 | 1.05
308.15 K, 101.3 kPa, x2 = 0.8827 | 1.153
308.15 K, 101.3 kPa, x2 = 0.9289 | 1.279

CCCCCO + CCCO
101.33 kPa
Settings | viscosity [mPa·s]
293.15 K, x2 = 0.1659 | 3.671
293.15 K, x2 = 0.3648 | 3.292
293.15 K, x2 = 0.5097 | 3.015
293.15 K, x2 = 0.6041 | 2.854
293.15 K, x2 = 0.7449 | 2.617
298.15 K, x2 = 0.2007 | 3.137
298.15 K, x2 = 0.381 | 2.856
298.15 K, x2 = 0.4603 | 2.722
298.15 K, x2 = 0.6314 | 2.464
298.15 K, x2 = 0.7745 | 2.261
298.15 K, x2 = 0.8626 | 2.141

CCOCCOCCO + CCCO
viscosity [mPa·s], 101 kPa
Settings | 298.15 K | 308.15 K | 318.15 K
x1 = 0.0114 | 1.94 | 1.509 | 1.233
x1 = 0.0195 | 1.939 | 1.508 | 1.233
x1 = 0.0356 | 1.947 | 1.516 | 1.248
x1 = 0.0469 | 1.955 | 1.517 | 1.249
x1 = 0.0557 | 1.95 | 1.526 | 1.259
x1 = 0.0883 | 1.972 | 1.546 | 1.277
x1 = 0.1002 | 1.992 | 1.558 | 1.281
x1 = 0.136 | 2.017 | 1.588 | 1.308
x1 = 0.1447 | 2.04 | 1.589 | 1.316
x1 = 0.168 | 2.051 | 1.617 | 1.341
x1 = 0.245 | 2.184 | 1.701 | 1.409
x1 = 0.2877 | 2.294 | 1.756 | 1.456
x1 = 0.3493 | 2.473 | 1.868 | 1.567
x1 = 0.411 | 2.616 | 1.984 | 1.657
x1 = 0.4745 | 2.761 | 2.1 | 1.752
x1 = 0.536 | 2.889 | 2.191 | 1.822
x1 = 0.6067 | 3.022 | 2.29 | 1.903
x1 = 0.6682 | 3.138 | 2.378 | 1.978
x1 = 0.7228 | 3.248 | 2.453 | 2.044
x1 = 0.7879 | 3.383 | 2.55 | 2.118
x1 = 0.8412 | 3.494 | 2.622 | 2.178
x1 = 0.894 | 3.6 | 2.695 | 2.238
x1 = 0.9378 | 3.694 | 2.76 | 2.281
x1 = 0.9751 | 3.755 | 2.813 | 2.324

O=[N+]([O-])c1ccccc1 + CCCO
viscosity [mPa·s], 101.33 kPa
Settings | x1 = 0.0517 | x1 = 0.1088 | x1 = 0.173 | x1 = 0.2456 | x1 = 0.3276 | x1 = 0.4224 | x1 = 0.5322 | x1 = 0.6613 | x1 = 0.8145
298.15 K | 1.815 | 1.725 | 1.606 | 1.56 | 1.511 | 1.49 | 1.478 | 1.494 | 1.55
303.15 K | 1.613 | 1.558 | 1.455 | 1.394 | 1.402 | 1.363 | 1.341 | 1.352 | 1.431

CCCCCCCCCCCCCC + CCCOC(C)=O
298.15 K, 101.33 kPa
Settings | viscosity [mPa·s]
x1 = 0.066 | 0.605
x1 = 0.0941 | 0.632
x1 = 0.1299 | 0.673
x1 = 0.1877 | 0.734
x1 = 0.2573 | 0.815
x1 = 0.3129 | 0.88
x1 = 0.4379 | 1.045
x1 = 0.5495 | 1.204
x1 = 0.6576 | 1.369
x1 = 0.8073 | 1.631
x1 = 0.8924 | 1.814
